US20250041377A1, “PHARMACEUTICAL USE” (ENLITISA (SHANGHAI) PHARMACEUTICAL CO., LTD., priority 2018, published 2025)
Where a SMILES comes first, the peptide text is derived from it. Where no end group is shown, it is not given here. [ ]: non-standard residue; d: D form. Dopa = N[C@@H](Cc1ccc(O)c(O)c1)C(=O)O; Hyp = O=C(O)[CH]1C[CH](O)CN1; 3Hyp = 3-hydroxyproline

Legend:
[1] = DPPH assay of antioxidant capacity; conditions: 200 μL peptide solution in 3.8 mL 0.06 mg/mL DPPH; 1.5 hours, room temperature, dark; absorbance 517 nm
Method: The antioxidant capacity of Compound B was determined using a 2,2-diphenyl-1-(2,4,6-trinitrophenyl) hydrazyl (DPPH) assay.
Compounds A and B were obtained as described in Example 3 above. The peptide powders were stored at −20° C. and dissolved in saline at concentrations as indicated below. DPPH was purchased from Sigma-Aldrich China, Shanghai. Other reagents employed and identified below were purchased from Shanghai Aladdin Bio-Chem Technology Co. Ltd., China.
The DPPH method is one of the most commonly used methods in determination of antioxidant capacity. DPPH is a stable, nitrogen-centred free radical with a dark purple solution and a maximum absorption peak at 517 nm. When a free radical scavenger is present in the reaction system, it can be paired with a single electron of DPPH., and the absorption peak at 517 nm is gradually dissipated.
The degree of colour change bears a stoichiometric relationship to the number of paired electrons. Thus, antioxidant activity can be measured according to the change of absorbance. The greater the inhibition rate, the stronger the antioxidant capacity. […]
200 μL of peptide solution was added to 3.8 mL of the DPPH solution. […] The absorbance at 517 nm was measured and was denoted as A1. The absorbance of the blank control sample was denoted as A0. Thus, the percentage of the […] is calculated as: Clearance rate (%)=[A0−A1]/A0×100

[2] = system: Hyp, VEGF and TGF-β1 in wound tissue; test: Acute wound model, ELISA of wound tissue; format: in vivo, C57BL/6 mice; conditions: for wound Hyp content (Mean): indicator of collagen regeneration; for TGF-β1 content (Mean): wound tissue
From the text: (§1) The model group was given same amount of normal saline. There were 8 mice in each group.
Samples were taken at Day 4 and Day 7 post-wound infliction. The mice were sacrificed and the wound tissue taken by the same biopsy punch used to create the wound. Then 5 mm of tissue was cut off from the center of the sample and was preserved in 10% neutral buffered formalin (Nanchang Rain Dew Experimental Equipment Co., Ltd., Nanchang, Hubei Province, China), and analyzed by histological embedding (HE) in paraffin wax, sectioning and staining.
The rest of the samples were stored at −80° C. for further analysis. Tissue was cut into small pieces and liquid nitrogen was added to increase brittleness. 9 mL of normal saline was added to 1 g of tissue, which was then ground using a Tissuelyser (Shanghai Jingxin Industrial Development Co., Ltd., Shanghai, China) at 55 Hz for 60 seconds, followed by centrifuging at 8000 rpm for 10 minutes at 4° C.
The supernatant was collected, and the extracted protein was used for ELISA analysis using standard ELISA test kits and an ELISA reader (SH-1000 Hitachi, Japan). Vascular endothelial growth factor (VEGF), transforming growth factor beta 1 (TGF-β1) and hydroxyproline (Hyp) were assayed. The ELISA kits were purchased from Beijing 4A Biotech Co., Ltd. (Beijing, China).

[3] = system: full thickness skin wound on the back; test: Acute wound model, remaining wound area; format: in vivo, C57BL/6 mice; conditions: for ratio of remaining wound area of initial wound: ± SD
Method: 6-8 weeks old male C57BL/6 mice were supplied by Changzhou Cvens Experimental Animal Co. Ltd (Changzhou, Jiangsu Province, China). Prior to any experiments being conducted, mice were housed under standardized conditions (at a constant temperature of 22±2° C., with alternating 12 hour periods of light and darkness), and were fed on a standard mouse diet with water, for about a week.
General anesthesia was induced using intraperitoneal 3% chloral hydrate (1 mL/10 g of body weight). The hair on the back was shaved by a baby hair shaver and depilated with cream. The skin area was wiped and sterilized with 75% alcohol twice.
An EMS skin biopsy punch (Electron Microscopy Sciences, P.O. Box 550, 1560 Industry Road, Hatfield, PA, USA) with a 18 mm diameter was used to make a round wound on the back. The full thickness of skin was removed and the depth of the wound reached the fascia. Wounds were left open without a suture.
as §1
Recombinant Human Epidermal Growth Factor (rhEGF, Shanghai Haohai Biological Technology Co. Ltd, 23/F, Shanghai, China) was purchased and prepared according to the manufacturer's instructions. The lyophilized rhEGF powder (100000 IU/vial) was dissolved in 20 mL of normal saline to make a solution with a concentration of 5000 IU/mL. The working dose of rhEGF for this experiment was 1285 IU/wound.
For this experiment, Compound A was also obtained from GL Biochem (Shanghai) Ltd. The peptide powders were stored at −20° C. and dissolved in saline at concentrations of 61.8 μg/mL (Compound A), and 61 μg/mL (Compound B). 50 μL of the solutions were applied onto the wound surfaces.
Wounds were dressed with gauze and transparent dresser after drug administration. Photographs were taken for each wound every other day from Day 0. Photos were scanned into a computer, and wound areas calculated using ImageJ image analysis software (National Institutes of Health, […]).
The unhealed wound area was expressed as a percentage of the original wound area: […]
where A0 and At refer to the initial area at Day 0 and the wound area at the date of measurement (time t), respectively.

[4] = Day 0, topical 50 μL/wound once daily, rhEGF 1285 IU/mouse, Compound A 3.09 μg/mouse, Compound B 3.05 μg/mouse

Row | Compound | DPPH clearance rate [1] | wound Hyp content (Mean) ([2]; Day 4) | TGF-β1 content (Mean) ([2]; Day 4) | wound Hyp content (Mean) ([2]; Day 7) | TGF-β1 content (Mean) ([2]; Day 7) | increase of VEGF production in the wounded tissue ([2]; in comparison with model group) | ratio of remaining wound area of initial wound [3, 4] | ratio of remaining wound area of initial wound ([3]; Day 1, topical once daily) | ratio of remaining wound area of initial wound ([3]; Day 2, topical once daily) | ratio of remaining wound area of initial wound ([3]; Day 3, topical once daily) | ratio of remaining wound area of initial wound ([3]; Day 4, topical once daily) | improvement rate ([3]; Day 4, versus model group) | ratio of remaining wound area of initial wound ([3]; Day 5, topical once daily) | ratio of remaining wound area of initial wound ([3]; Day 6, topical once daily)
1 | CC(N)C(=O)NC(CCCCN)C(=O)N1CCCC1C(=O)NC(CO)C(=O)NC(Cc1ccc(O)cc1)C(=O)N1CC(O)CC1C(=O)N1CC(O)CC1C(=O)NC(C(=O)NC(Cc1ccc(O)cc1)C(=O)NC(CCCCN)C(=O)O)C(C)O (stereo not drawn) [Compound B, Ala-Lys-Pro-Ser-Tyr-Hyp-Hyp-Thr-Tyr-Lys] (H-AKPSY[Hyp][Hyp]TYK-OH; configuration not given here) | 8.9% | 2.039 µg/mg | 20571.8 pg/g | 2.810 µg/mg | 18659.6 pg/g | about 56.7% | 79.4 ± 3.4% | 100 ± 4.5% | 96.7 ± 5.6% | 76.7 ± 4.8% | 66.5 ± 1.4% | about 10% | 55.8 ± 1.3% | 51.9 ± 1.7%
2 | Ala-Lys-Pro-Ser-Tyr-Hyp-Hyp-Thr-DOPA-Lys (AKPSY[3Hyp][Hyp]T[Dopa]K; listed as Mytilus edulis) [Compound A] | 52.11% | 3.676 µg/mg | 11866.2 pg/g | 2.694 µg/mg | 18074.8 pg/g |  | 77.2 ± 4.1% | 100 ± 17.1% | 81.2 ± 11.2% | 74.2 ± 0.9% | 60.9 ± 7.3% |  | 50.5 ± 11.3% | 45.8 ± 4.7%
